# Data published in ChEMBL document CHEMBL3351478 (Eur J Med Chem, 2014).
# pIC50: −log10 of the molar value. Active and inactive are the calls of the source. The calls are words filed in the database; no cut-off is given here.
# Legend:
# [1] = system: Leishmania donovani; experiment: Antileishmanial activity against Leishmania donovani; format: functional, organism-based
# [2] = system: THP-1; experiment: Induction of nitric oxide production in human THP1 cells infected with Leishmania donovani amastigotes at 0.93 uM incubated for 48 hrs by Griess assay relative to untreated control; format: functional
# [3] = Cytotoxicity against human THP1 cells incubated for 92 hrs by MTT assay; format: cell-based; conditions: THP-1 cells
# [4] = system: Leishmania donovani; experiment: microbe, parasite or virus in culture; conditions: THP-1, 48 h
# Description: Antileishmanial activity against Leishmania donovani amastigotes infected in human THP1 cells at 10 to 210 uM incubated for 48 hrs by Giemsa staining based optical microscopy
# [5] = system: Leishmania donovani; experiment: Antileishmanial activity against Leishmania donovani AG83 promastigotes assessed as parasite growth inhibition incubated for 92 hrs by MTT assay; format: functional, organism-based; conditions: AG83, 92 h
# [6] = (§1) Selectivity index, ratio of CC50 for human THP1 cells to IC50 for Leishmania donovani amastigotes infected in human THP1 cells; format: functional, THP-1
# [7] = system: THP-1; experiment: Induction of iNOS2 mRNA expression in human THP1 cells infected with Leishmania donovani amastigotes at 0.93 uM incubated for 5 hrs by RT-PCR method; format: functional, cell-based
# [8] = system: Leishmania donovani; experiment: Antileishmanial activity against Leishmania donovani amastigotes infected in human THP1 cells assessed as parasite growth inhibition at 100 uM incubated for 48 hrs by Giemsa staining based optical microscopy; format: functional; conditions: THP-1, 48 h, read-out: GI
# [9] = system: THP-1; experiment: Induction of nitric oxide production in human THP1 cells infected with Leishmania donovani amastigotes at 32.3 uM incubated for 48 hrs by Griess assay relative to untreated control; format: functional, cell-based
# [10] = system: THP-1; experiment: as §1; format: functional
compound,measurement,setting,value
COc1cc(-c2oc3cc(O)cc(O)c3c(=O)c2O)cc(OC)c1OC,IC50,[1],> 30 µg/mL
COc1cc(O)c2c(=O)c(OC)c(-c3cc(O)c(O)c(OC)c3)oc2c1,fold change (FC),[2],8.4
same,CC50 at 92 h,[3],124 µM
same,pIC50,[4],6.03
same,pIC50,[5],5.62
same,IC90,[5],28.1 µM
same,Ratio CC50/IC50,[6],133.01
same,Activity,[7],Active
same,inhibition of growth at 100 µM,[8],100%
sodium antimonygluconate,Activity,[9],inactive
same,Ratio CC50/IC50,[10],10.1
